Values quoted from earlier work in PubChem BioAssay AID1259410 (Chemical Carcinogenesis Research Information System (CCRIS), 2018).

System: rodent tumor promotion studies, tumor incidence
Assay: CCRIS tumor promotion studies
Conditions: Route [Promoter]: DERMAL, Species: MOUSE

Measured: outcome

CCCCCCCCCCCCCC(=O)O[C@@H]1[C@@H](C)[C@@]2(O)[C@@H](C=C(CO)C[C@]3(O)C(=O)C(C)=C[C@@H]23)[C@@H]2C(C)(C)[C@]12OC(C)=O
skin: tumors: Carcinogen: (+/-)-TRANS-1,2-DIHYDRO-1,2-DIHYDROXY-5-METHYLCHRYSENE, 96741-20-7, Doses [Carcinogen]: 33, 100 NMOL IN 0.1 ML ACETONE ONCE, Doses [Promoter]: 2.5 UG IN 0.1 ML ACETONE 3/WK FOR 25 WK BEGINNING 10 D POST INITIATION (STUDY DURATION: 27 WK), Route [Carcinogen]: DERMAL, Strain/Sex: CD-1/FEMALE | Carcinogen: (+/-)-TRANS-1,2-DIHYDROXY-ANTI-3,4-EPOXY-1,2,3,4-TETRAHYDRO-5-METHYLCHRYSENE, 96790-39-5, Doses [Carcinogen]: 33, 100 NMOL IN 0.1 ML ACETONE ONCE, Doses [Promoter]: 2.5 UG IN 0.1 ML ACETONE 3/WK FOR 25 WK BEGINNING 10 D POST INITIATION (STUDY DURATION: 27 WK), Route [Carcinogen]: DERMAL, Strain/Sex: CD-1/FEMALE | Carcinogen: (+/-)-TRANS-7,8-DIHYDRO-7,8-DIHYDROXY-5-METHYLCHRYSENE, 96741-21-8, Doses [Carcinogen]: 33, 100 NMOL IN 0.1 ML ACETONE ONCE, Doses [Promoter]: 2.5 UG IN 0.1 ML ACETONE 3/WK FOR 25 WK BEGINNING 10 D POST INITIATION (STUDY DURATION: 27 WK), Route [Carcinogen]: DERMAL, Strain/Sex: CD-1/FEMALE | Carcinogen: BENZO[B]FLUORANTHRENE, 205-99-2, Doses [Carcinogen]: 40, 100 NMOL TOTAL DOSES GIVEN IN 10 SUBDOSES 1/2 D IN 0.1 ML ACETONE, Doses [Promoter]: 2.5 UG IN 0.1 ML ACETONE 3/WK FOR 30 WK BEGINNING 10 D POST CARCINOGEN TREATMENT (STUDY DURATION: 34 WK), Route [Carcinogen]: DERMAL, Strain/Sex: CD-1/FEMALE | Carcinogen: BENZO[J]FLUORANTHENE, 205-82-3, Doses [Carcinogen]: 0, 1, 3 UMOL (TOTAL DOSE) IN ACETONE SOLUTION 1/2 D FOR 10 DOSES, Doses [Carcinogen]: 0, 1, 3 UMOL (TOTAL DOSE) IN ACETONE SOLUTION 1/2 D FOR 10 DOSES, Doses [Promoter]: 2.5 UG IN ACETONE 3/WK BEGINNING 10 D POST LAST CARCINOGEN DOSE AND CONTINUING FOR 20 WK (STUDY DURATION: 23 WK), Route [Carcinogen]: DERMAL, Strain/Sex: CD-1/FEMALE
skin: papilloma, carcinoma: Carcinogen: BENZO[A]PYRENE, 50-32-8, Doses [Carcinogen]: 0, 2.52, 12.6, 50.5, 101 UG IN ACETONE ONCE, Doses [Carcinogen]: 0, 2.52, 12.6, 50.5, 101 UG IN ACETONE ONCE, Doses [Promoter]: 0, 2 UG IN ACETONE 2/WK FOR 52 WK (STUDY DURATION: 1 YR), Route [Carcinogen]: DERMAL, Strain/Sex: SENCAR/FEMALE | Carcinogen: BENZO[A]PYRENE, 50-32-8, Doses [Carcinogen]: 0, 2.52, 12.6, 50.5, 101 UG IN ACETONE ONCE, Doses [Carcinogen]: 0, 2.52, 12.6, 50.5, 101 UG IN ACETONE ONCE, Doses [Promoter]: 0, 2 UG IN ACETONE 2/WK FOR 52 WK (STUDY DURATION: 1 YR), Route [Carcinogen]: DERMAL, Strain/Sex: SENCAR/MALE
skin: tumor: Carcinogen: (+/-)-R,11-T-12-DIHYDROXY-T-13,14-EPOXY-11,12,13,14-TETRAHYDRODIBENZO[A,L]PYRENE, 159812-26-7, Doses [Carcinogen]: 1.33, 4, 12 NMOL IN 100 ML ACETONE ONCE, Doses [Carcinogen]: 1.33, 4, 12 NMOL IN 100 ML ACETONE ONCE, Doses [Promoter]: 1.62 NMOL IN 100 ML ACETONE 2/WK FOR 28 WK BEGINNING 1 WK POST CARCINOGEN DOSE (STUDY DURATION: 30 WK), Route [Carcinogen]: DERMAL, Strain/Sex: SENCAR/FEMALE | Carcinogen: (+/-)-R-11,T-12-DIHYDROXY-C-13,14-EPOXY-11,12,13,14-TETRAHYDRODIBENZO[A,L]PYRENE, 159812-27-8, Doses [Carcinogen]: 1.33, 4, 12 NMOL IN 100 ML ACETONE ONCE, Doses [Carcinogen]: 1.33, 4, 12 NMOL IN 100 ML ACETONE ONCE, Doses [Promoter]: 1.62 NMOL IN 100 ML ACETONE 2/WK FOR 28 WK BEGINNING 1 WK POST CARCINOGEN DOSE (STUDY DURATION: 30 WK), Route [Carcinogen]: DERMAL, Strain/Sex: SENCAR/FEMALE | Carcinogen: ANTI-1,2-DIHYDROXY-3,4-EPOXY-1,2,3,4-TETRAHYDRO-5,6-DIMETHYLCHRYSENE, 139347-89-0, Doses [Carcinogen]: 33, 100, 400 NMOL IN 0.1 ML ACETONE ONCE, Doses [Carcinogen]: 33, 100, 400 NMOL IN 0.1 ML ACETONE ONCE, Doses [Promoter]: 0, 2.5 UG IN 0.1 ML ACETONE 3/WK FOR 20 WK BEGINNING 10 D POST CARCINOGEN DOSE (STUDY DURATION: 20 WK), Route [Carcinogen]: DERMAL, Strain/Sex: CD-1/FEMALE | Carcinogen: ANTI-4,3-DIHYDROXY-2,1-EPOXY-4,3,2,1-TETRAHYDROBENZO[C]PHENANTHRENE, 75443-72-0, Doses [Carcinogen]: 100, 400 NMOL IN 0.1 ML ACETONE ONCE, Doses [Promoter]: 0, 2.5 UG IN 0.1 ML ACETONE 3/WK FOR 20 WK BEGINNING 10 D POST CARCINOGEN DOSE (STUDY DURATION: 20 WK), Route [Carcinogen]: DERMAL, Strain/Sex: CD-1/FEMALE | Carcinogen: BENZO[A]PYRENE, 50-32-8, Doses [Carcinogen]: 20, 100 NMOL IN 100 µL ACETONE ONCE, Doses [Promoter]: 3.24 NMOL/100 µL ACETONE 2/WK BEGINNING 2 WK POST CARCINOGEN DOSE AND CONTINUING FOR 24 WK (STUDY DURATION: 27 WK), Route [Carcinogen]: DERMAL, Strain/Sex: SENCAR/FEMALE | Carcinogen: BENZO[A]PYRENE, 50-32-8, Doses [Carcinogen]: 33.3, 100, 300 NMOL IN 100 µL ACETONE ONCE, Doses [Carcinogen]: 33.3, 100, 300 NMOL IN 100 µL ACETONE ONCE, Doses [Promoter]: 3.24 NMOL/100 µL ACETONE ONCE 1 WK POST CARCINOGEN DOSE THEN 2/WK BEGINNING 3 WK LATER AND CONTINUING FOR 11 WK (STUDY D, Route [Carcinogen]: DERMAL, Strain/Sex: SENCAR/FEMALE | Carcinogen: BENZO[B]FLUORANTHENE, 205-99-2, Doses [Carcinogen]: 0, 0.04, 0.12, 0.4 UMOL (TOTAL DOSE) APPLIED IN SUBDOSES 1/2 D FOR 5 WK, Doses [Carcinogen]: 0, 0.04, 0.12, 0.4 UMOL (TOTAL DOSE) APPLIED IN SUBDOSES 1/2 D FOR 5 WK, Doses [Promoter]: 2.5 UG IN 100 µL ACETONE 3/WK FOR 20 WK BEGINNING 10 D POST LAST CARCINOGEN DOSE (STUDY DURATION: 26 WK), Route [Carcinogen]: DERMAL, Strain/Sex: CD-1/FEMALE | Carcinogen: BENZO[B]FLUORANTHENE, 205-99-2, Doses [Carcinogen]: 40, 120, 400 NMOL (TOTAL DOSE) APPLIED 1/2 D FOR 10 SUBDOSES, Doses [Carcinogen]: 40, 120, 400 NMOL (TOTAL DOSE) APPLIED 1/2 D FOR 10 SUBDOSES, Doses [Promoter]: 0, 2.5 UG IN 100 µL ACETONE 3/WK FOR 20 WK BEGINNING 10 D POST CARCINOGEN TREATMENT (STUDY DURATION: 22 WK), Route [Carcinogen]: DERMAL, Strain/Sex: CRL:CD-1/FEMALE | Carcinogen: BENZO[J]FLUORANTHENE, 205-82-3, Doses [Carcinogen]: 0.3, 1, 2 UMOL (TOTAL DOSE) ADMINISTERED IN SUBDOSES 1/2 D, Doses [Carcinogen]: 0.3, 1, 2 UMOL (TOTAL DOSE) ADMINISTERED IN SUBDOSES 1/2 D, Doses [Promoter]: 2.5 UG IN 100 µL ACETONE 3/WK FOR 20 WK BEGINNING 10 D POST LAST CARCINOGEN DOSE (STUDY DURATION: 27 WK), Route [Carcinogen]: DERMAL, Strain/Sex: CD-1/FEMALE | Carcinogen: BENZO[K]FLUORANTHENE, 207-08-9, Doses [Carcinogen]: 4 UMOL (TOTAL DOSE) ADMINISTERED IN 10 SUBDOSES 1/2 D, Doses [Promoter]: 2.5 UG IN 0.1 ML ACETONE 3/WK FOR 30 WK BEGINNING 10 D POST CARCINOGEN TREATMENT (STUDY DURATION: 33 WK), Route [Carcinogen]: DERMAL, Strain/Sex: CRL:CD-1/FEMALE | Carcinogen: CAPTAN, 133-06-2, Doses [Carcinogen]: 450 MG/KG BW IN 200 µL DMSO 3/WK FOR 3 WK, Doses [Promoter]: 0, 5 UG IN 100 µL ACETONE 3/WK FOR 51 WK BEGINNING 1 WK POST CARCINOGEN TREATMENT (STUDY DURATION: 54 WK), Route [Carcinogen]: DERMAL, Strain/Sex: SWISS/FEMALE | Carcinogen: CARBARYL, 63-25-2, Doses [Carcinogen]: 100 MG/KG IN 100 µL ACETONE 3/WK FOR 3 WK, Doses [Promoter]: 0, 5 UG IN 100 µL ACETONE 3/WK FOR 51 WK BEGINNING 1 WK POST CARCINOGEN TREATMENT (STUDY DURATION: 52 WK), Route [Carcinogen]: DERMAL, Strain/Sex: SWISS/FEMALE | Carcinogen: DIBENZO[A,L]PYRENE-8,9-DIHYDRODIOL, 130063-43-3, Doses [Carcinogen]: 100 NMOL IN 100 µL ACETONE ONCE, Doses [Promoter]: 3.24 NMOL/100 µL ACETONE 2/WK BEGINNING 2 WK POST CARCINOGEN DOSE AND CONTINUING FOR 24 WK (STUDY DURATION: 27 WK), Route [Carcinogen]: DERMAL, Strain/Sex: SENCAR/FEMALE | Carcinogen: DIBENZO[A,L]PYRENE-11,12-DIHYDRODIOL, 88191-01-9, Doses [Carcinogen]: 1 NMOL IN 100 µL ACETONE, Doses [Promoter]: 2.16 NMOL IN 100 µL ACETONE 2/WK FOR 27 WK BEGINNING 1 WK POST CARCINOGEN DOSE (STUDY DURATION: 28 WK), Route [Carcinogen]: DERMAL, Strain/Sex: SENCAR/FEMALE | Carcinogen: DIBENZO[A,L]PYRENE-11,12-DIHYDRODIOL, 88191-01-9, Doses [Carcinogen]: 4, 20, 100 NMOL IN 100 µL ACETONE ONCE, Doses [Carcinogen]: 4, 20, 100 NMOL IN 100 µL ACETONE ONCE, Doses [Promoter]: 3.24 NMOL/100 µL ACETONE 2/WK BEGINNING 2 WK POST CARCINOGEN DOSE AND CONTINUING FOR 24 WK (STUDY DURATION: 27 WK), Route [Carcinogen]: DERMAL, Strain/Sex: SENCAR/FEMALE | Carcinogen: DIBENZO[A,L]PYRENE-11,12-DIHYDRODIOL, 155254-86-7, Doses [Carcinogen]: 1.33, 4, 12 NMOL IN 100 ML ACETONE ONCE, Doses [Carcinogen]: 1.33, 4, 12 NMOL IN 100 ML ACETONE ONCE, Doses [Promoter]: 1.62 NMOL IN 100 ML ACETONE 2/WK FOR 28 WK BEGINNING 1 WK POST CARCINOGEN DOSE (STUDY DURATION: 30 WK), Route [Carcinogen]: DERMAL, Strain/Sex: SENCAR/FEMALE
skin: papilloma: Carcinogen: 15,16-DIHYDRO-11-METHYLCYCLOPENTA[A]PHENANTHREN-17-ONE, 892-17-1, Doses [Carcinogen]: 1632 NMOL IN 100 µL TOLUENE ONCE, Doses [Promoter]: 0, 2 UG IN 50 µL ACETONE 2/WK FOR 19 WK BEGINNING 1 WK POST CARCINOGEN TREATMENT (STUDY DURATION: 20 WK), Route [Carcinogen]: DERMAL, Strain/Sex: SKH/HR-1/MALE | Carcinogen: CISPLATIN, 15663-27-1, Doses [Carcinogen]: 7.5 MG/KG IN 2.5% SALINE ONCE ON DAY 17 OF GESTATION, Doses [Promoter]: 0, 2 UG IN ACETONE 2/WK FOR 20 WK TO OFFSPRING OF MOTHERS ADMINISTERED CARCINOGEN (STUDY DURATION: 25 WK), Route [Carcinogen]: INTRAPERITONEAL, TRANSPLACENTAL, Strain/Sex: SENCAR/MALE, FEMALE
